These results are taken from the supplement of paper PMC5579334.

Structures are written as SMILES.

Experiment [1] relates to HS-PSS. Kind of experiment: drug sensitivity score (DSS, CellTiter-Glo viability, 72 h) (DSS (dimensionless)); higher = more sensitive; extreme values may be limits of the assay. A digest of the protocol: (§1)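 For this screen, 384-well plates were preprinted with each compound at five concentrations in 10-fold steps and seeded with MPNST cell lines or primary human Schwann cells at 750–1000 cells per well. Incubation lasted 72 h at 37 °C, 5% CO2, and CellTiter-Glo ATP luminescence, scaled between vehicle and positive-control wells and averaged over duplicates where available, served as viability. Logistic fits with four parameters were applied. Relative IC50 (censored at the top concentration) and drug sensitivity score derive from these fits, and percent inhibition is at the top concentration.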
(In general: Cellular ATP, detected with luciferase, serves as a proxy for viable cell number.)

Experiment [2] deals with HS-Sch-2. The description is as above. An outline of the steps:
as §1

Experiment [3] deals with YST-1. The description is as above. An outline of the steps: as §1
In experiment [4] the test system is HS-PSS. Kind of experiment: drug sensitivity score (DSS, CellTox-Green cytotoxicity, 72 h) (DSS (dimensionless)); higher = more cytotoxic; extreme values may be limits of the assay. A digest of the protocol:
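MPNST cell lines and primary human Schwann cells were grown for 72 h at 37 °C in 384-well plates containing five 10-fold compound dilutions. CellTox-Green, added before seeding at a final 1:1000 dilution, gave fluorescence from DNA released by disrupted cells, and signals were scaled to vehicle and positive-control wells. Curves were fitted with a four-parameter logistic model. Drug sensitivity score and relative IC50 come from these fits, with IC50 censored at the top concentration.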

For experiment [5], the system named is HS-PSS. Kind of experiment: % inhibition of CellTiter-Glo viability at highest tested concentration (72 h), relative to DMSO and benzethonium chloride controls; higher = more inhibition. An outline of the steps:
as §1

Experiment [6] deals with HS-Sch-2. The description is as above. A digest of the protocol:
as §1

The test system of experiment [7] is YST-1. The description is as above. A digest of the protocol: as §1

Broadly, the % inhibition is the change of the read-out against control, counted positive when it falls. `O=c1sn(-c2cccc3ccccc23)c(=O)n1Cc1ccccc1` [Tideglusib] (max concentration tested 3000 nM): the drug sensitivity score in the experiment with HS-PSS [1], in the experiment with HS-Sch-2 [2], with YST-1 [3] and in the experiment with HS-PSS [4] was 0 each time. The “% inhibition” value in the experiment with HS-PSS [5] came to 6.62%; in the experiment on HS-Sch-2 [6], 2.01%; in the experiment on YST-1 [7] it was 3.93%.

For `CCOc1cc2ncc(C#N)c(Nc3ccc(F)c(Cl)c3)c2cc1NC(=O)/C=C/CN(C)C` [Pelitinib] (max concentration tested 2500 nM), the drug sensitivity score with HS-PSS [1] turned out to be 12.8; in the experiment on HS-Sch-2 [2] it was 11; in the experiment on YST-1 [3], 4.87; with HS-PSS [4], 1.05. Further, the “% inhibition” value in the experiment on HS-PSS [5] was 73.9%; in the experiment on HS-Sch-2 [6], 89.6%; in the experiment on YST-1 [7], 47.9%.

In the case of `C=CC(=O)Nc1cc(Nc2nccc(-c3cn(C)c4ccccc34)n2)c(OC)cc1N(C)CCN(C)C` [Osimertinib] (max concentration tested 2500 nM), the drug sensitivity score in the experiment with HS-PSS [1] stood at 5.5; in the experiment with HS-Sch-2 [2] it was 4.21; in the experiment on YST-1 [3] it was 6.9; in the experiment with HS-PSS [4], 0.95. Besides, the figures for the “% inhibition” value in the experiment with HS-PSS [5], in the experiment with HS-Sch-2 [6] and in the experiment on YST-1 [7] were 66.3%, 73.2% and 63.7%, respectively.

`C[C@@H](Oc1ccc2[nH]nc(/C=C/c3cnn(CCO)c3)c2c1)c1c(Cl)cncc1Cl` (max concentration tested 1000 nM): the drug sensitivity score was 7.62 with HS-PSS [1], 6.87 with HS-Sch-2 [2], 6.1 with YST-1 [3] and 2.66 in the experiment on HS-PSS [4]. Further, the “% inhibition” value with HS-PSS [5] is 91%; with HS-Sch-2 [6], 67.9%; with YST-1 [7], 55.4%.

Turning to `O[C@H]1CC[C@H](Nc2ncc3nc(Nc4c(F)cc(F)cc4F)n([C@H]4CCOC4)c3n2)CC1` [Tanzisertib] (max concentration tested 10000 nM), the drug sensitivity score with HS-PSS [1] was 0; with HS-Sch-2 [2] it was 0; with YST-1 [3], 1.56; in the experiment on HS-PSS [4] it was 0. Further, the “% inhibition” value was -0.16% with HS-PSS [5], -2.81% in the experiment on HS-Sch-2 [6] and 11.6% in the experiment on YST-1 [7].

On to `COc1cccc(OCCCN)c1-c1cc(Nc2cnc(C#N)cn2)n[nH]1` [Prexasertib] (max concentration tested 10000 nM), for which the drug sensitivity score with HS-PSS [1] turned out to be 6.05; in the experiment with HS-Sch-2 [2], 29.9; with YST-1 [3] it was 22.2; in the experiment with HS-PSS [4], 0.01. Also, the entries for the “% inhibition” value with HS-PSS [5], in the experiment on HS-Sch-2 [6] and in the experiment with YST-1 [7] were 70%, 88.6% and 76.3%, respectively.

With `CCCCCCCCCCCCCCCCCCOP(=O)([O-])OC1CC[N+](C)(C)CC1` [Perifosine] (max concentration tested 2500 nM), the drug sensitivity score with HS-PSS [1], in the experiment with HS-Sch-2 [2], in the experiment on YST-1 [3] and in the experiment with HS-PSS [4] was 0 in each case. The “% inhibition” value is 0.4% in the experiment with HS-PSS [5], 4.74% in the experiment with HS-Sch-2 [6] and -0.19% with YST-1 [7].

In the case of `CN[C@@H](C)C(=O)N[C@H](C(=O)N1CCC[C@H]1c1nc(C(=O)c2ccc(F)cc2)cs1)C1CCCCC1` [LCL161] (max concentration tested 25000 nM), the drug sensitivity score in the experiment with HS-PSS [1] amounted to 2.18; in the experiment with HS-Sch-2 [2], 2.38; in the experiment with YST-1 [3], 3.14; in the experiment with HS-PSS [4], 0.11. For the same compound, the “% inhibition” value in the experiment on HS-PSS [5] was determined as 27.8%; in the experiment with HS-Sch-2 [6] it was 44.2%; with YST-1 [7], 38.7%.

Consider `COc1cc(C(=O)NC2CCN(C)CC2)c(F)cc1Nc1ncc2c(n1)N(C1CCCC1)CC(F)(F)C(=O)N2C` [TAK-960] (max concentration tested 2500 nM), for which the drug sensitivity score turned out to be 0 in the experiment with HS-PSS [1], 0.18 in the experiment on HS-Sch-2 [2], 0 in the experiment on YST-1 [3] and 0 with HS-PSS [4]. The “% inhibition” value amounted to 11.9% with HS-PSS [5], 16.2% with HS-Sch-2 [6] and 2.44% in the experiment on YST-1 [7].

Consider `COc1cc(Br)c(Nc2nc(-c3c(C)nc4ncccn34)cs2)c(Br)c1` [PTC-209] (max concentration tested 10000 nM), for which the drug sensitivity score in the experiment with HS-PSS [1] worked out at 7.63; in the experiment with HS-Sch-2 [2], 7.96; in the experiment on YST-1 [3], 6.29; with HS-PSS [4] it was 0. For the same compound, the entries for the “% inhibition” value in the experiment with HS-PSS [5], with HS-Sch-2 [6] and in the experiment with YST-1 [7] were 84.8%, 81% and 94.4%, respectively.

`CC(=O)O[C@]1(C(C)=O)CC[C@H]2[C@@H]3C=C(C)C4=CC(=O)CC[C@]4(C)[C@H]3CC[C@@]21C` [Megestrol acetate] (max concentration tested 10000 nM): the drug sensitivity score in the experiment with HS-PSS [1], with HS-Sch-2 [2], with YST-1 [3] and in the experiment with HS-PSS [4] was 0 throughout. The results for the “% inhibition” value in the experiment with HS-PSS [5], with HS-Sch-2 [6] and in the experiment on YST-1 [7] were -2.66%, 2.53% and 6.88%, respectively.

Consider `COc1cc(N2CCC(N3CCN(C)CC3)CC2)ccc1Nc1ncnc(Nc2ccccc2S(=O)(=O)C(C)C)n1` [ASP3026] (max concentration tested 10000 nM), for which the drug sensitivity score with HS-PSS [1], with HS-Sch-2 [2], with YST-1 [3] and with HS-PSS [4] was 0 in each case. Also, the “% inhibition” value was 2.45% in the experiment with HS-PSS [5], 4.73% with HS-Sch-2 [6] and -4.61% with YST-1 [7].

Turning to `CNC(=O)c1cc(COc2nnc(Nc3ccc(Cl)cc3)c3ccoc23)ccn1` [Telatinib] (max concentration tested 10000 nM), the drug sensitivity score in the experiment with HS-PSS [1] came to 0; in the experiment with HS-Sch-2 [2], 0; in the experiment on YST-1 [3] it was 0.77; in the experiment on HS-PSS [4], 0. The “% inhibition” value in the experiment on HS-PSS [5] stood at 5.71%; in the experiment with HS-Sch-2 [6] it was 8.79%; with YST-1 [7], 6.98%.

Take `Cc1ccc2nc(CN(CCN(Cc3nc4ccc(C)cc4[nH]3)Cc3nc4ccc(C)cc4[nH]3)Cc3nc4ccc(C)cc4[nH]3)[nH]c2c1` (max concentration tested 50000 nM): the drug sensitivity score in the experiment with HS-PSS [1] worked out at 7.02; with HS-Sch-2 [2], 7.29; in the experiment on YST-1 [3] it was 6.33; in the experiment on HS-PSS [4], 0.03. The “% inhibition” value is 74.3% in the experiment with HS-PSS [5], 80.3% with HS-Sch-2 [6] and 67.5% with YST-1 [7].

As to `CC(C)Nc1cc(-c2c[nH]c(C(=O)N[C@H](CO)c3cccc(Cl)c3)c2)c(Cl)cn1` [Ulixertinib] (max concentration tested 10000 nM), the drug sensitivity score with HS-PSS [1] came to 2.52; in the experiment on HS-Sch-2 [2], 6.76; with YST-1 [3] it was 3.93; in the experiment on HS-PSS [4], 0. Moreover, the entries for the “% inhibition” value in the experiment with HS-PSS [5], in the experiment on HS-Sch-2 [6] and with YST-1 [7] were 53%, 68.7% and 41.1%, respectively.

Take `CCC(C)n1ncn(-c2ccc(N3CCN(c4ccc(OCC5COC(Cn6cncn6)(c6ccc(Cl)cc6Cl)O5)cc4)CC3)cc2)c1=O` (centres undefined) [Itraconazole] (max concentration tested 5000 nM): the drug sensitivity score in the experiment on HS-PSS [1] was determined as 4.25; in the experiment on HS-Sch-2 [2] it was 0.33; with YST-1 [3] it was 1.58; with HS-PSS [4], 0. Further, the figures for the “% inhibition” value in the experiment with HS-PSS [5], in the experiment with HS-Sch-2 [6] and with YST-1 [7] were 50.9%, 11.3% and 33.2%, respectively.

For `CNc1nc(-c2ccc3c(N)n[nH]c3c2)cc(N2C[C@@H](C(=O)NC3CCCCC3)CC[C@H]2C)n1` (max concentration tested 10000 nM), the drug sensitivity score amounted to 1.2 in the experiment on HS-PSS [1], 0.1 in the experiment on HS-Sch-2 [2], 7.15 with YST-1 [3] and 0 with HS-PSS [4]. Also, the “% inhibition” value worked out at 27.7% in the experiment with HS-PSS [5], 14.3% in the experiment with HS-Sch-2 [6] and 54% in the experiment with YST-1 [7].
